Test results published in patent US10300091B2, “Sustained release angiogenesis modulating compositions and methods for induction and modulation of angiogenesis” (University of Florida Research Foundation, Inc., priority 2013, dated 2019).

Test system: HUVEC
Assay: Screening of TSP-1 in hPE-based angiogenesis assay
Assay type: cell-based, human
Experimental: Unless otherwise stated, 32 μl of placental extract was thawed and pipetted into each well of a 96 well plate. The extract was evenly coated onto the bottom of each well using an orbital shaker at 30 RPM for 1 minute. The coated plate was then incubated at 37° C. for 30 minutes. HUVEC were then plating by direct pipetting at 20000 cells/cm^2, 40000 cells/cm^2, or 80000 cells/cm^2. Multiple time points were investigated at each concentration including at days 1, 3, and 5. Thrombospondin-1 was tested as an angiogenesis inhibiting drug using final concentrations 0, 5, 10, 20, and 35 μg/μL diluted in endothelial cell media
Network formation was analyzed after staining at a concentration of 2 μg/mL Calcein AM (Invitrogen-Life Technologies, NY, USA) with Endothelial cell culture media. In a dark room, dyed cells were incubated at 37° C., 5% CO2 for 30 minutes, and then images were taken using a Zeiss Axiovert 200 inverted Fluorescence microscope (Zeiss, Thornwood, N.Y.). Images were analyzed to determine the tubule length, tubule width, branch points, and other meshwork characterizations using ImageJ 1.45s (NIH, Bethesda, Md.). Branch points were assigned manually as the positions at every node where branches meet or tubules sprout, and tubule length was assessed by determining the curve length from branch point to connected branch point. Tubule width measurements were carried out in three different zones per tubule, with two zones each 10 μm from the start and end and one zone in the middle of the curve length. The percent area of coverage was determined by processing the images using the imageJ function “binary>>convert to mask” followed by measurement of the “mean.” In TSP-1 experiments, final values were normalized to no dose samples, calculated as the percentage of “1” values relative to the total count of pixel values, and given as “% area coverage”.

TSP-1: glycoprotein with potent inhibition activity on neovascularization; model anti-angiogenic drug
angiogenic network formation with TSP-1 (HUVEC on hPE treated plates, 1 d of culture): significantly reduced angiogenic network formation
total tubule-length and branch points as a function of TSP-1 concentration (hPE-coated plates, 0-35 μg/μL TSP-1): decrease linearly
effect of TSP-1 on control HUVECs (seeded directly onto uncoated tissue culture plates, 1 d): not affected
